# Source: US20260297542A1, “HERBICIDE RESISTANT PLANTS” (SYNGENTA CROP PROTECTION AG, priority 2023, published 2026)
# Positions count from the first letter of the chain named.
# Tests used:
# Test in all cases: E. coli hemG growth inhibition by herbicide, AtPPO1 variant
# Type in all cases: cell-based
# Conditions in all cases: read-out: percentage growth inhibition
# AtPPO1 E111D = target: T1, AtPPO1 E111D (Arabidopsis thaliana, UniProt P55826, E111D)
# T1 construct: expressed in transfected cells; host or cells: E. coli BL21(DE3) hemG (hemG replaced by CmR), pET24a plasmid
# T1 sequence (P55826 35-537 E111D): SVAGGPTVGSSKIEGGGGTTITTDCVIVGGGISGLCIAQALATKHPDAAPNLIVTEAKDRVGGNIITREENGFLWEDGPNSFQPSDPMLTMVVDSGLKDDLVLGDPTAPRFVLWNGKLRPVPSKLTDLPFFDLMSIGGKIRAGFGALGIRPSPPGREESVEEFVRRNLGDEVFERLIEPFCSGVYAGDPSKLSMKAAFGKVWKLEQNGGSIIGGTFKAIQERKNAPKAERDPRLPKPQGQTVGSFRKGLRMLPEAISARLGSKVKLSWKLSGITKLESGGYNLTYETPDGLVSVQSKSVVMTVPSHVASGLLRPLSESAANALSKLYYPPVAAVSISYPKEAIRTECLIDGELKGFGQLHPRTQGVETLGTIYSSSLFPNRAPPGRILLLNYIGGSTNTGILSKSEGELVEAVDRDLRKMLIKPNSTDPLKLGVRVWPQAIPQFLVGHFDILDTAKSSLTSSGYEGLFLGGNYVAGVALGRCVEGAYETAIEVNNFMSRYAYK
# Excerpt: (§1) A pET24a plasmid containing a DNA sequence encoding a variant of PPO1 derived from Arabidopsis thaliana (AtPPO1), codon-optimised for expression in E. coli and under control of a T7 promoter, was synthesised by Twist Bioscience (SEQ ID NO:3). This plasmid was used as the basis of a Site Saturation Variant Library (SSVL) that substituted the codons at 352 amino acid positions for codons that encoded one of the other 19 amino acids, or removed the codon altogether, resulting in a translation product with a deletion at that position.
# (§2) The SSVL was batch-transformed by electroporation into an E. coli BL21(DE3) hemG strain with the hemG gene replaced by CmR conferring resistance to chloramphenicol and spread onto LA supplemented with 50 μg/mL kanamycin, 25 μg/mL chloramphenicol and 20 μg/mL hematin. Each batch consisted of all the plasmids that contained variants at two sites.
# (§3) Colonies from batch transformations were inoculated into 500 μL of Terrific broth supplemented with 50 μg/mL kanamycin, 25 μg/mL chloramphenicol and 20 μg/mL hematin in 96-deepwell blocks. Cultures were grown for 24 hours at 37° C. with shaking at 250 rpm.
# (§4) Overnight cultures were centrifuged and the cell pellets resuspended with 500 μL of Terrific broth. The resuspended cultures were used at a ratio of 1:100 to inoculate a fresh 96-deepwell block containing 500 μL of Terrific broth supplemented with 0.1 mM IPTG, 50 μg/mL kanamycin, 25 μg/mL chloramphenicol and 6.25 ppm of herbicide […] or E or 0.78 ppm herbicide B or DMSO. Assay cultures were grown for 24 hours at 37° C. with shaking at 250 rpm with the OD600 being measured at 24 hours post inoculation. Strains that grew in both DMSO and herbicide were determined to be herbicide tolerant with the percentage of growth inhibition being calculated as below: […]
# AtPPO1 P154Y = target: T2, AtPPO1 P154Y (Arabidopsis thaliana, UniProt P55826, P154Y)
# T2 construct: expressed in transfected cells; host or cells: E. coli BL21(DE3) hemG (hemG replaced by CmR), pET24a plasmid
# T2 sequence (P55826 35-537 P154Y): T1 sequence (P55826 35-537 E111D) with D77E, P120Y
# Excerpt: as §1, §2, §3, §4
# AtPPO1 V511N = target: T3, AtPPO1 V511N (Arabidopsis thaliana, UniProt P55826, V511N)
# T3 construct: expressed in transfected cells; host or cells: E. coli BL21(DE3) hemG, pET24a plasmid
# T3 sequence (P55826 35-537 V511N): T1 sequence (P55826 35-537 E111D) with D77E, V477N
# Excerpt: as §1, §2, §3, §4
# AtPPO1 Y426C = target: T4, AtPPO1 Y426C (Arabidopsis thaliana, UniProt P55826, Y426C)
# T4 construct: expressed in transfected cells; host or cells: E. coli BL21(DE3) hemG (pET24a, T7 promoter)
# T4 sequence (P55826 35-537 Y426C): T1 sequence (P55826 35-537 E111D) with D77E, Y392C
# Excerpt: as §1, §2, §3, §4
smiles,measurement,setting,value
"CC(C)N(C)S(=O)(=O)NC(=O)c1cc(-n2c(=O)cc(C(F)(F)F)n(C)c2=O)c(F)cc1Cl [Herbicide E, saflufenacil]",inhibition at 6.25 ppm,AtPPO1 E111D,69%
same,inhibition at 6.25 ppm,AtPPO1 P154Y,68%
same,inhibition at 6.25 ppm,AtPPO1 V511N,48%
same,inhibition at 6.25 ppm,AtPPO1 Y426C,4%
"C#CCN1C(=O)C(F)(F)Oc2cc(F)c(-n3c(=O)n(C)c(=S)n(C)c3=O)cc21 [Herbicide B, trifludimoxazin]",inhibition at 0.78 ppm,AtPPO1 E111D,23%
same,inhibition at 0.78 ppm,AtPPO1 P154Y,34%
same,inhibition at 0.78 ppm,AtPPO1 V511N,20%
same,inhibition at 0.78 ppm,AtPPO1 Y426C,2%
"CCOC(=O)[C@]1(C)CC(c2cc(-n3c(=O)n(C)c(=S)n(C)c3=O)c(F)cc2Cl)=NO1 [Herbicide D, ethyl (5S)-3-[2-chloro-5-(3,5-dimethyl-2,6-dioxo-4-thioxo-1,3,5-triazinan-1-yl)-4-fluoro-phenyl]-5-methyl-4H-isoxazole-5-carboxylate]",inhibition at 6.25 ppm,AtPPO1 E111D,30%
same,inhibition at 6.25 ppm,AtPPO1 P154Y,38%
same,inhibition at 6.25 ppm,AtPPO1 V511N,22%
same,inhibition at 6.25 ppm,AtPPO1 Y426C,34%
